Measured values: the NIST ThermoML archive (doi:10.1007/s10765-008-0390-4)
± gives the expanded uncertainty stated by the source.

Experiment: xn = mol fraction of the nth substance listed
Conditions: 101 kPa, Liquid

c1ccccc1 [benzene] + CCCCO
mass density [kg/m3]
Conditions | 288.15 K | 293.15 K | 298.15 K | 303.15 K | 308.15 K | 313.15 K
x2 = 0 | 884.246 ± 0.15 | 878.918 ± 0.16 | 873.582 ± 0.16 | 868.233 ± 0.17 | 862.871 ± 0.17 | 857.498 ± 0.17
x2 = 0.0193 | 882.483 ± 0.16 | 877.168 ± 0.16 | 871.844 ± 0.17 | 866.507 ± 0.17 | 861.158 ± 0.17 | 855.809 ± 0.18
x2 = 0.0534 | 879.595 ± 0.16 | 874.309 ± 0.16 | 869.007 ± 0.17 | 863.694 ± 0.17 | 858.36 ± 0.18 | 853.019 ± 0.18
x2 = 0.1013 | 875.72 ± 0.16 | 870.495 ± 0.17 | 865.255 ± 0.17 | 859.995 ± 0.17 | 854.713 ± 0.18 | 849.433 ± 0.18
x2 = 0.1509 | 871.829 ± 0.17 | 866.677 ± 0.17 | 861.506 ± 0.17 | 856.309 ± 0.18 | 851.089 ± 0.18 | 845.861 ± 0.19
x2 = 0.2016 | 867.984 ± 0.17 | 862.908 ± 0.17 | 857.807 ± 0.18 | 852.685 ± 0.18 | 847.536 ± 0.19 | 842.375 ± 0.19
x2 = 0.2018 | 867.955 ± 0.17 | 862.874 ± 0.17 | 857.776 ± 0.18 | 852.651 ± 0.18 | 847.499 ± 0.19 | 842.342 ± 0.19
x2 = 0.25 | 864.382 ± 0.17 | 859.372 ± 0.18 | 854.344 ± 0.18 | 849.285 ± 0.19 | 844.201 ± 0.19 | 839.11 ± 0.19
x2 = 0.2997 | 860.741 ± 0.18 | 855.806 ± 0.18 | 850.849 ± 0.19 | 845.866 ± 0.19 | 840.854 ± 0.19 | 835.83 ± 0.2
x2 = 0.3532 | 856.936 ± 0.18 | 852.081 ± 0.19 | 847.201 ± 0.19 | 842.294 ± 0.19 | 837.357 ± 0.2 | 832.4 ± 0.2
x2 = 0.4019 | 853.504 ± 0.19 | 848.721 ± 0.19 | 843.914 ± 0.19 | 839.08 ± 0.2 | 834.214 ± 0.2 | 829.324 ± 0.2
x2 = 0.4525 | 850 ± 0.19 | 845.3 ± 0.19 | 840.574 ± 0.2 | 835.817 ± 0.2 | 831.029 ± 0.2 | 826.217 ± 0.21
x2 = 0.4998 | 846.738 ± 0.2 | 842.111 ± 0.2 | 837.46 ± 0.2 | 832.778 ± 0.2 | 828.059 ± 0.21 | 823.32 ± 0.21
x2 = 0.5532 | 843.129 ± 0.2 | 838.594 ± 0.2 | 834.03 ± 0.21 | 829.436 ± 0.21 | 824.804 ± 0.21 | 820.157 ± 0.22
x2 = 0.6004 | 839.985 ± 0.2 | 835.529 ± 0.21 | 831.042 ± 0.21 | 826.525 ± 0.21 | 821.974 ± 0.22 | 817.402 ± 0.22
x2 = 0.6493 | 836.693 ± 0.21 | 832.317 ± 0.21 | 827.91 ± 0.21 | 823.473 ± 0.22 | 819.001 ± 0.22 | 814.449 ± 0.22
x2 = 0.701 | 833.239 ± 0.21 | 828.949 ± 0.22 | 824.631 ± 0.22 | 820.282 ± 0.22 | 815.895 ± 0.23 | 811.483 ± 0.23
x2 = 0.7502 | 829.979 ± 0.22 | 825.772 ± 0.22 | 821.537 ± 0.22 | 817.269 ± 0.23 | 812.965 ± 0.23 | 808.64 ± 0.23
x2 = 0.7945 | 827.051 ± 0.22 | 822.92 ± 0.22 | 818.759 ± 0.23 | 814.569 ± 0.23 | 810.343 ± 0.23 | 806.094 ± 0.24
x2 = 0.8511 | 823.296 ± 0.23 | 819.258 ± 0.23 | 815.196 ± 0.23 | 811.102 ± 0.23 | 806.975 ± 0.24 | 802.822 ± 0.24
x2 = 0.8961 | 820.299 ± 0.23 | 816.336 ± 0.23 | 812.348 ± 0.24 | 808.331 ± 0.24 | 804.274 ± 0.24 | 800.189 ± 0.24
x2 = 0.951 | 816.663 ± 0.24 | 812.791 ± 0.24 | 808.897 ± 0.24 | 804.977 ± 0.24 | 801.025 ± 0.25 | 797.051 ± 0.25

ClC(Cl)Cl [trichloromethane] + CCCCO
mass density [kg/m3]
Conditions | 288.15 K | 293.15 K | 298.15 K | 303.15 K | 308.15 K | 313.15 K
x2 = 0 | 1498.08 ± 0.47 | 1488.64 ± 0.46 | 1479.15 ± 0.45 | 1469.61 ± 0.45 | 1460.03 ± 0.44 | 1450.41 ± 0.43
x2 = 0.0493 | 1458.97 ± 0.47 | 1449.82 ± 0.46 | 1440.63 ± 0.45 | 1431.4 ± 0.45 | 1422.12 ± 0.44 | 1412.82 ± 0.43
x2 = 0.0994 | 1420.12 ± 0.44 | 1411.28 ± 0.43 | 1402.39 ± 0.42 | 1393.45 ± 0.42 | 1384.45 ± 0.41 | 1375.41 ± 0.4
x2 = 0.1499 | 1381.86 ± 0.41 | 1373.34 ± 0.41 | 1364.77 ± 0.4 | 1356.15 ± 0.39 | 1347.47 ± 0.38 | 1338.76 ± 0.38
x2 = 0.2003 | 1344.3 ± 0.39 | 1336.11 ± 0.38 | 1327.86 ± 0.37 | 1319.57 ± 0.36 | 1311.21 ± 0.36 | 1302.8 ± 0.35
x2 = 0.2476 | 1309.65 ± 0.36 | 1301.76 ± 0.35 | 1293.82 ± 0.35 | 1285.82 ± 0.34 | 1277.77 ± 0.33 | 1269.66 ± 0.33
x2 = 0.279 | 1286.97 ± 0.34 | 1279.28 ± 0.34 | 1271.53 ± 0.33 | 1263.75 ± 0.33 | 1255.9 ± 0.32 | 1248.02 ± 0.31
x2 = 0.3474 | 1238.34 ± 0.31 | 1231.07 ± 0.3 | 1223.75 ± 0.3 | 1216.37 ± 0.29 | 1208.94 ± 0.29 | 1201.48 ± 0.28
x2 = 0.4003 | 1201.44 ± 0.28 | 1194.48 ± 0.28 | 1187.48 ± 0.27 | 1180.42 ± 0.27 | 1173.31 ± 0.26 | 1166.16 ± 0.26
x2 = 0.461 | 1159.74 ± 0.26 | 1153.14 ± 0.25 | 1146.5 ± 0.25 | 1139.81 ± 0.24 | 1133.06 ± 0.23 | 1126.29 ± 0.23
x2 = 0.4993 | 1133.81 ± 0.24 | 1127.43 ± 0.23 | 1121 ± 0.23 | 1114.53 ± 0.22 | 1108 ± 0.22 | 1101.42 ± 0.21
x2 = 0.5517 | 1098.6 ± 0.22 | 1092.6 ± 0.21 | 1086.4 ± 0.21 | 1080.3 ± 0.2 | 1074 ± 0.2 | 1067.8 ± 0.19
x2 = 0.5989 | 1067.38 ± 0.2 | 1061.55 ± 0.19 | 1055.69 ± 0.19 | 1049.78 ± 0.18 | 1043.81 ± 0.18 | 1037.8 ± 0.17
x2 = 0.651 | 1033.23 ± 0.18 | 1027.7 ± 0.17 | 1022.12 ± 0.17 | 1016.5 ± 0.17 | 1010.82 ± 0.16 | 1005.11 ± 0.16
x2 = 0.7008 | 1001.03 ± 0.16 | 995.76 ± 0.16 | 990.45 ± 0.16 | 985.097 ± 0.16 | 979.698 ± 0.17 | 974.26 ± 0.17
x2 = 0.7485 | 970.42 ± 0.17 | 965.404 ± 0.18 | 960.349 ± 0.18 | 955.255 ± 0.18 | 950.115 ± 0.18 | 944.94 ± 0.18
x2 = 0.7987 | 938.452 ± 0.19 | 933.697 ± 0.19 | 928.907 ± 0.2 | 924.082 ± 0.2 | 919.208 ± 0.2 | 914.297 ± 0.2
x2 = 0.8495 | 906.492 ± 0.21 | 901.999 ± 0.21 | 897.472 ± 0.21 | 892.91 ± 0.22 | 888.303 ± 0.22 | 883.67 ± 0.22
x2 = 0.8953 | 877.854 ± 0.23 | 873.588 ± 0.23 | 869.292 ± 0.23 | 864.961 ± 0.23 | 860.59 ± 0.24 | 856.188 ± 0.24
x2 = 0.9475 | 845.53 ± 0.25 | 841.51 ± 0.25 | 837.462 ± 0.25 | 833.386 ± 0.25 | 829.272 ± 0.26 | 825.138 ± 0.26
